Source: patent publication US9115072B2, “Compounds and method for reducing uric acid” (WELLSTAT THERAPEUTICS CORPORATION, priority 2008, dated 2015)
Counter-ions that a name gives are not always drawn.

Target: T1, human URAT1 (Homo sapiens, UniProt Q96S37)
T1 construct: The full-length hURAT1 cDNA was obtained from the vector pCMV6-XL5 and subcloned into the expression vector pCMV6-Neo
T1 sequence (Q96S37 1-553): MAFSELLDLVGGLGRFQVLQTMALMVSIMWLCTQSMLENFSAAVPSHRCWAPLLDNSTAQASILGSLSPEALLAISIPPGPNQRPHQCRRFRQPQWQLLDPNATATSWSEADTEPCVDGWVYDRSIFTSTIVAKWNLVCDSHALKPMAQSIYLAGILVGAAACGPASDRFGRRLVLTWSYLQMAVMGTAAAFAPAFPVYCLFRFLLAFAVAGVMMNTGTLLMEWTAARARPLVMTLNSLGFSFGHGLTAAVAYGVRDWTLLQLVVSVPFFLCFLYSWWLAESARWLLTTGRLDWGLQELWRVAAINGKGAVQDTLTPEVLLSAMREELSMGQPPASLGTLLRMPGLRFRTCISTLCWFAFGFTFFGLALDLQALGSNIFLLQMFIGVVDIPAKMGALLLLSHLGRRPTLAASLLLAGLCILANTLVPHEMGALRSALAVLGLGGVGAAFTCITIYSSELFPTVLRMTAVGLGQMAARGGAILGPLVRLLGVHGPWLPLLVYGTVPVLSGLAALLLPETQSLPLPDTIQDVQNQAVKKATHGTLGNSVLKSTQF
Assay: URAT1 inhibition assay, [8-14C] urate uptake in hURAT1-HEK cells
Format: cell-based
Conditions: 50 μM [8-14C] urate; for inhibition at 10 µM: drug concentration typically 10 micromolar, read-out: % of Inhibition (uric acid uptake)
Experimental: A suitable assay involves transfection of cells (e.g. human embryonic kidney cells; “HEK”) with a vector encoding human URAT1, followed by determination of the ability of transfected cells to take up radiolabeled uric acid. The activity of compounds as URAT1 inhibitors is evaluated by their ability to block uric acid uptake by transfected cells.
Urate (50-60 mCi/mmol; American Radio Chemicals, Cat. No. ARC0513).
Plasmid vector pCMV6-XL5 containing hURAT1 cDNA (Cat. No. SC125624) and the expression vector pCMV6-Neo (Cat. No. pCMVNEO) were obtained from OriGene Technologies, Inc. The full-length hURAT1 cDNA was obtained from the vector pCMV6-XL5 and subcloned into the expression vector pCMV6-Neo to create the hURAT1 expression plasmid pCMV6-hURAT1. The sequences were verified by automatic DNA sequencing.
For transfection experiments, cells were plated on 60 mm dishes in 1 ml media per dish. […] Stable transfectants expressing hURAT1 (herein after referred as hURAT1-HEK cells) or cells having only the expression vector pCMV6-Neo (herein after referred as mock-HEK cells) were verified using reverse transcription polymerase chain reaction (RT-PCR) methods.
Before the uptake assay started, the culture medium was removed and the cells were incubated for 5 min in 0.6 ml of HBSS. After that HBSS was removed, the prepared reaction solutions were added into each well and incubated for 5 min at room temperature. Then the reaction solution was removed, cells were washed twice with 0.6 ml of cold HBSS and lysed with 0.2 ml of 0.1 M NaOH for 20 min. […] Test compounds were dissolved in DMSO and the same concentration of DMSO was added into the wells of mock-HEK cells and the hURAT1-HEK cells that didn't contain test compounds. For each test compound, the uptake assay was performed 2 times and carried out in triplicate. Urate uptake of the cells for each test condition was presented as the average percent inhibition in comparison to the DMSO control. The radioactivity values obtained for the wells that contained DMSO were taken as 100% uptake of the cells. The observed concentration-percent inhibition data were fitted to a sigmoidal concentration-effect model, where: IC50^Slope=[(100*Conc^Slope)/% Inhibition]−Conc^Slope
Additional drug concentrations were tested for determination of IC-50 values for some compounds (Table 6).

Row | SMILES | inhibition at 10 µM | IC50
1 | COc1ccccc1COc1ccc(C(=O)CCC(=O)O)cc1 [AB, 4-(4-(2-Methoxybenzyloxy)phenyl)-4-oxobutanoic acid] | 3.7% | 
2 | O=C(O)CCC(=O)c1ccc(OCc2ccccn2)cc1 [AF, 4-oxo-4-(4-(pyridin-2-ylmethoxy)phenyl)butanoic acid] | 41.3% | 
3 | O=C(O)CCC(=O)c1ccc(OCc2ccccc2)cc1 [AG, 4-(4-(Benzyloxy)phenyl)-4-oxobutanoic acid] | 5.99% | 
4 | O=C(O)CCC(=O)c1ccc(OCc2c(F)cccc2F)cc1 [AH, 4-(4-(2,6-Difluorobenzyloxy)phenyl)-4-oxobutanoic acid] | 26.8% | 
5 | O=C(O)CCC(=O)c1ccc(OCc2ccccc2Cl)cc1 [AI, 4-(4-(2-Chlorobenzyloxy)phenyl)-4-oxobutanoic acid] | 2.3% | 
6 | CN(CCOc1ccc(C(=O)CCC(=O)O)cc1)Cc1ccccc1F [AM, 4-(4-(2-((2-Fluorobenzyl)(methyl)amino)ethoxy)phenyl)-4-oxobutanoic acid hydrochloride] | 0% | 
7 | Cc1ccccc1COc1cccc(C(=O)CCC(=O)O)c1 [AN, 4-(3-(2-Methylbenzyloxy)phenyl)-4-oxobutanoic acid] | 54.4% | 
8 | Cc1ccc(C)c(COc2ccc(C(=O)CCC(=O)O)cc2)c1 [AT, 4-(4-(2,5-Dimethylbenzyloxy)phenyl)-4-oxobutanoic acid] | 7.95% | 
9 | O=C(O)CCC(=O)c1cccc(OCc2c(F)cccc2F)c1 [AW, 4-(3-(2,6-Difluorobenzyloxy)phenyl)-4-oxobutanoic acid] | 61.9% | 
10 | O=C(O)CCC(=O)c1ccc(OCc2ccccc2C(F)(F)F)cc1 [AY, 4-(4-(2-Trifluoromethylbenzyloxy)phenyl)-4-oxobutanoic acid] | 8.9% | 
11 | O=C(O)CCC(=O)c1cccc(OCC2CC2)c1 [BH, 4-(3-(Cyclopropylmethoxy)phenyl)-4-oxobutanoic acid] | 62.4% | 
12 | Cc1cccc(F)c1COc1cccc(C(=O)CCC(=O)O)c1 [BJ, 4-(3-(2-Fluoro-6-methylbenzyloxy)phenyl)-4-oxobutanoic acid] | 81.8% | 
13 | Cc1cccc(C)c1COc1ccc(C(=O)CCC(=O)O)cc1 [BM, 4-(4-(2,6-Dimethylbenzyloxy)phenyl)-4-oxobutanoic acid] | 22.2% | 
14 | Cc1cccc(C)c1COc1cccc(C(=O)CC(C)(C)C(=O)O)c1 [BP, 4-(3-(2,6-Dimethylbenzyloxy)phenyl)-2,2-dimethyl-4-oxobutanoic acid] | 76.5% | 4390 nM
15 | Cc1cccc(C)c1COc1cccc(CCCC(=O)O)c1 [BS, 4-(3-(2,6-Dimethylbenzyloxy)phenyl)butanoic acid] | 28.6% | 
16 | COc1cc(C(=O)CCC(=O)O)ccc1OCc1c(C)cccc1C [BT, 4-(4-(2,6-Dimethylbenzyloxy)-3-methoxyphenyl)-4-oxobutanoic acid] | 51.8% | 
17 | Cc1cccc(C)c1COc1cccc(C(=O)CCCC(=O)O)c1 [CD, 5-(3-(2,6-Dimethylbenzyloxy)phenyl)-5-oxopentanoic acid] | 63.5% | 
18 | Cc1cccc(C)c1COc1cccc(CC(=O)O)c1 [CF, 3-(2,6-Dimethylbenzyloxy)phenylacetic acid] | 96.5% | 530 nM
19 | Cc1cccc(C)c1COc1cccc(CCCCC(=O)O)c1 [CK, 5-(3-(2,6-Dimethylbenzyloxy)phenyl)pentanoic acid] | 88% | 2690 nM
20 | Cc1cccc(C)c1COc1cccc(CCC(=O)O)c1 [CM, 3-(3-(2,6-Dimethylbenzyloxy)phenyl)propanoic acid] | 89% | 1010 nM
21 | Cc1cccc(C)c1COc1cccc(C(=O)C(=O)O)c1 [CQ, 2-(3-(2,6-Dimethylbenzyloxy)phenyl)-2-oxoacetic acid] | 84.8% | 1330 nM

Row | SMILES | inhibition at 10 µM | IC50
22 | Cc1cccc(C)c1COc1cccc([C@H](O)CCC(=O)O)c1 [CR, 4-(3-(2,6-Dimethylbenzyloxy)-phenyl)-4(R)-hydroxybutanoic acid] | 60.6% | 
23 | O=C(O)Cc1cccc(OCc2ccc(C(F)(F)F)cc2C(F)(F)F)c1 [DN, 2-(3-(2,4-bis(trifluoromethyl)benzyloxy)phenyl)acetic acid] | 45.4% | 
24 | Cc1cccc(C)c1COc1ccc(CC(=O)O)cc1 [DO, 2-(4-(2,6-Dimethylbenzyloxy)phenyl)acetic acid] | 80.3% | 
25 | Cc1cccc(C)c1C(=O)Oc1cccc(C(=O)CCC(=O)O)c1 [DP, 4-(3-(2,6-Dimethylbenzoyloxy)phenyl)-4-oxobutanoic acid] | 60.5% | 
26 | COc1ccc(CC(=O)O)cc1OCc1c(C)cccc1C [DQ, 2-(3-(2,6-Dimethylbenzyloxy)-4-methoxyphenyl)acetic acid] | 99.4% | 180 nM
27 | O=C(O)Cc1cccc(OCc2c(F)cccc2F)c1 [DR, 2-(3-(2,6-Difluorobenzyloxy)phenyl)acetic acid] | 68.3% | 
28 | O=C(O)CCC(=O)c1cccc(OCc2c(Cl)cccc2Cl)c1 [DS, 4-(3-(2,6-Dichlorobenzyloxy)phenyl)-4-oxobutanoic acid] | 75% | 
29 | Cc1cccc(C)c1COc1cccc(C(C)C(=O)O)c1 (stereo not drawn) [DT, 2-(3-(2,6-Dimethylbenzyloxy)phenyl)propanoic acid] | 89.1% | 
30 | O=C(O)Cc1cccc(OCc2ccc(C(F)(F)F)cc2)c1 [DU] | 30.5% | 
31 | CCC(C(=O)O)c1cccc(OCc2c(C)cccc2C)c1 (stereo not drawn) [DV, 2-(3-(2,6-Dimethylbenzyloxy)phenyl)butanoic acid] | 79.5% | 890 nM
32 | Cc1cc(C)cc(COc2cccc(CC(=O)O)c2)c1 [DW, 2-(3-(3,5-Dimethylbenzyloxy)phenyl)acetic acid] | 54% | 
33 | Cc1ccc(COc2cccc(CC(=O)O)c2)c(C)c1 [DX, 2-(3-(2,4-Dimethylbenzyloxy)phenyl)acetic acid] | 64% | 
34 | COc1cccc(OC)c1COc1cccc(CC(=O)O)c1 [DY, 2-(3-(2,6-Dimethoxylbenzyloxy)phenyl)acetic acid] | 85.2% | 1880 nM
35 | O=C(O)Cc1cccc(OCc2ccccc2)c1 [DZ, 2-(3-(Benzyloxy)phenyl)acetic acid] | 26.9% | 
36 | Cc1cccc(C)c1COc1ccccc1CC(=O)O [EA, 2-(2-(2,6-Dimethylbenzyloxy)phenyl)acetic acid] | 49% | 
37 | COC(=O)CC(=O)c1cccc(OCc2c(C)cccc2C)c1 [EB, Methyl 3-(3-(2,6-dimethylbenzyloxy)phenyl)-3-oxopropanoate] | 21.6% | 
38 | Cc1cccc(C)c1COc1cccc(C(C)C(=O)O)c1 (stereo not drawn) [EC, 2-(3-(2,6-Dimethylbenzyloxy)phenyl)propanoic acid] |  | 330 nM
39 | Cc1cccc(C)c1COc1cccc(C(C)(C)C(=O)O)c1 [EE, 2-(3-(2,6-Dimethylbenzyloxy)phenyl)-2-methylpropanoic acid] | 90.1% | 
40 | Cc1cccc(C)c1COc1cccc(C2(C(=O)O)CC2)c1 [EF, 1-(3-(2,6-Dimethylbenzyloxy)phenyl)cyclopropanecarboxylic acid] | 90.3% | 590 nM
41 | Cc1cccc(Cl)c1COc1cccc(CC(=O)O)c1 [EG, 2-(3-(2-Chloro-6-methylbenzyloxy)phenyl)acetic acid] | 89.7% | 
42 | Cc1cccc(C)c1COc1cc(CC(=O)O)ccc1F [EI, 2-(3-(2,6-Dimethylbenzyloxy)-4-fluorophenyl)acetic acid] | 93% | 
